This is an account of results in the supplement of paper PMC10307832.

What all share (assay): relative viability (nuclei count vs DMSO), 5 days (fraction); higher = more cells survive
Compound in the experiment “Palbociclib + Trametinib”: CC(=O)c1c(C)c2cnc(Nc3ccc(N4CCNCC4)cn3)nc2n(C2CCCC2)c1=O [Palbociclib] + CC(=O)Nc1cccc(-n2c(=O)n(C3CC3)c(=O)c3c(Nc4ccc(I)cc4F)n(C)c(=O)c(C)c32)c1 [Trametinib] (partner 0.02 µM)
The gist of the method: (§1)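 Values are medians from duplicate plates. Each reflects relative viability, defined as the nuclei count of treated wells over that of vehicle wells. Lung cancer cell lines in 1536-well plates were pin-tool dosed one day after seeding with one drug alone or with a fixed anchor-drug dose plus five library-drug doses (not always all listed) in √10 steps, then fixed, stained and imaged at 4× after 5 days.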

Compound in the experiment “Palbociclib + Navitoclax”: CC(=O)c1c(C)c2cnc(Nc3ccc(N4CCNCC4)cn3)nc2n(C2CCCC2)c1=O [Palbociclib] + CC1(C)CCC(c2ccc(Cl)cc2)=C(CN2CCN(c3ccc(C(=O)NS(=O)(=O)c4ccc(N[C@H](CCN5CCOCC5)CSc5ccccc5)c(S(=O)(=O)C(F)(F)F)c4)cc3)CC2)C1 [Navitoclax] (partner 0.5 µM)
The gist of the method:
as §1

Compound in the experiment “Palbociclib + Tozasertib”: CC(=O)c1c(C)c2cnc(Nc3ccc(N4CCNCC4)cn3)nc2n(C2CCCC2)c1=O [Palbociclib] + Cc1cc(Nc2cc(N3CCN(C)CC3)nc(Sc3ccc(NC(=O)C4CC4)cc3)n2)n[nH]1 [Tozasertib] (partner 0.1 µM)
The method in brief: as §1

Compound in the experiment “Palbociclib + Decitabine”: CC(=O)c1c(C)c2cnc(Nc3ccc(N4CCNCC4)cn3)nc2n(C2CCCC2)c1=O [Palbociclib] + Nc1ncn([C@H]2C[C@H](O)[C@@H](CO)O2)c(=O)n1 [Decitabine] (partner 2 µM)
The gist of the method:
as §1

On to RERF-LC-KJ, for which the relative viability in the experiment with Palbociclib + Trametinib (first compound 0.01 µM) worked out at 0.793; with Palbociclib + Trametinib (first compound 0.03162 µM), 0.771; with Palbociclib + Trametinib (first compound 0.1 µM), 0.846; with Palbociclib + Trametinib (first compound 0.3162 µM) it was 0.813; with Palbociclib + Trametinib (first compound 1 µM), 0.91; with Palbociclib + Navitoclax (first compound 0.01 µM), 0.87. For the same cell line, the relative viability with Palbociclib + Navitoclax (first compound 0.03162 µM) came to 0.8; in the experiment with Palbociclib + Navitoclax (first compound 0.1 µM), 1.26; with Palbociclib + Navitoclax (first compound 0.3162 µM), 1.32; in the experiment with Palbociclib + Navitoclax (first compound 1 µM), 1.11; with Palbociclib + Tozasertib (first compound 0.01 µM), 0.467; in the experiment with Palbociclib + Tozasertib (first compound 0.03162 µM), 0.446. Moreover, the relative viability with Palbociclib + Tozasertib (first compound 0.1 µM) stood at 0.392; with Palbociclib + Tozasertib (first compound 0.3162 µM), 0.536; with Palbociclib + Tozasertib (first compound 1 µM), 0.534; with Palbociclib + Decitabine (first compound 0.01 µM), 0.879; with Palbociclib + Decitabine (first compound 0.03162 µM), 0.732; with Palbociclib + Decitabine (first compound 0.1 µM) it was 0.733. Further, the relative viability in the experiment with Palbociclib + Decitabine (first compound 0.3162 µM) was found to be 0.748; with Palbociclib + Decitabine (first compound 1 µM), 0.767.
With SK-LU-1, the relative viability in the experiment with Palbociclib + Trametinib (first compound 0.01 µM) came out at 0.516; in the experiment with Palbociclib + Trametinib (first compound 0.03162 µM) it was 0.439; in the experiment with Palbociclib + Trametinib (first compound 0.1 µM), 0.39; in the experiment with Palbociclib + Trametinib (first compound 0.3162 µM), 0.411; in the experiment with Palbociclib + Trametinib (first compound 1 µM), 0.317; with Palbociclib + Navitoclax (first compound 0.01 µM), 0.938. In addition, the relative viability in the experiment with Palbociclib + Navitoclax (first compound 0.03162 µM) is 0.757; with Palbociclib + Navitoclax (first compound 0.1 µM), 0.725; with Palbociclib + Navitoclax (first compound 0.3162 µM) it was 0.539; with Palbociclib + Navitoclax (first compound 1 µM) it was 0.733; in the experiment with Palbociclib + Tozasertib (first compound 0.01 µM), 0.334; with Palbociclib + Tozasertib (first compound 0.03162 µM) it was 0.33. Further, the relative viability with Palbociclib + Tozasertib (first compound 0.1 µM) worked out at 0.266; with Palbociclib + Tozasertib (first compound 0.3162 µM), 0.251; with Palbociclib + Tozasertib (first compound 1 µM) it was 0.228; with Palbociclib + Decitabine (first compound 0.01 µM) it was 0.644; with Palbociclib + Decitabine (first compound 0.03162 µM) it was 0.659; with Palbociclib + Decitabine (first compound 0.1 µM) it was 0.6. The relative viability turned out to be 0.639 in the experiment with Palbociclib + Decitabine (first compound 0.3162 µM) and 0.505 with Palbociclib + Decitabine (first compound 1 µM).
Regarding SK-MES-1, the relative viability with Palbociclib + Trametinib (first compound 0.01 µM) was found to be 0.562; in the experiment with Palbociclib + Trametinib (first compound 0.03162 µM), 0.463; with Palbociclib + Trametinib (first compound 0.1 µM) it was 0.469; with Palbociclib + Trametinib (first compound 0.3162 µM), 0.432; with Palbociclib + Trametinib (first compound 1 µM), 0.313; in the experiment with Palbociclib + Navitoclax (first compound 0.01 µM), 1.36. In addition, the relative viability with Palbociclib + Navitoclax (first compound 0.03162 µM) worked out at 1.22; with Palbociclib + Navitoclax (first compound 0.1 µM) it was 0.821; with Palbociclib + Navitoclax (first compound 0.3162 µM), 0.745; in the experiment with Palbociclib + Navitoclax (first compound 1 µM), 0.477; in the experiment with Palbociclib + Tozasertib (first compound 0.01 µM), 0.858; with Palbociclib + Tozasertib (first compound 0.03162 µM), 0.76. Moreover, the relative viability in the experiment with Palbociclib + Tozasertib (first compound 0.1 µM) was 0.595; in the experiment with Palbociclib + Tozasertib (first compound 0.3162 µM), 0.502; with Palbociclib + Tozasertib (first compound 1 µM), 0.29; with Palbociclib + Decitabine (first compound 0.01 µM), 0.354; with Palbociclib + Decitabine (first compound 0.03162 µM), 0.377; with Palbociclib + Decitabine (first compound 0.1 µM) it was 0.404. Further, the values for the relative viability in the experiment with Palbociclib + Decitabine (first compound 0.3162 µM) and with Palbociclib + Decitabine (first compound 1 µM) were 0.357 and 0.263, respectively.
In the case of SW 1573, the relative viability in the experiment with Palbociclib + Trametinib (first compound 0.01 µM) came out at 0.6; with Palbociclib + Trametinib (first compound 0.03162 µM), 0.432; with Palbociclib + Trametinib (first compound 0.1 µM) it was 0.515; with Palbociclib + Trametinib (first compound 0.3162 µM), 0.42; with Palbociclib + Trametinib (first compound 1 µM) it was 0.366; with Palbociclib + Navitoclax (first compound 0.01 µM) it was 0.986. Besides, the relative viability with Palbociclib + Navitoclax (first compound 0.03162 µM) stood at 1; in the experiment with Palbociclib + Navitoclax (first compound 0.1 µM) it was 0.838; with Palbociclib + Navitoclax (first compound 0.3162 µM) it was 0.642; with Palbociclib + Navitoclax (first compound 1 µM), 0.439; with Palbociclib + Tozasertib (first compound 0.01 µM) it was 0.151; with Palbociclib + Tozasertib (first compound 0.03162 µM), 0.185. Also, the relative viability was determined as 0.167 in the experiment with Palbociclib + Tozasertib (first compound 0.1 µM); 0.148 with Palbociclib + Tozasertib (first compound 0.3162 µM); 0.163 with Palbociclib + Tozasertib (first compound 1 µM); 0.573 with Palbociclib + Decitabine (first compound 0.01 µM); 0.455 with Palbociclib + Decitabine (first compound 0.03162 µM); 0.598 in the experiment with Palbociclib + Decitabine (first compound 0.1 µM). The relative viability with Palbociclib + Decitabine (first compound 0.3162 µM) turned out to be 0.479; in the experiment with Palbociclib + Decitabine (first compound 1 µM), 0.326.
UMC-11: the relative viability with Palbociclib + Trametinib (first compound 0.01 µM) was found to be 0.762; in the experiment with Palbociclib + Trametinib (first compound 0.03162 µM), 0.602; with Palbociclib + Trametinib (first compound 0.1 µM), 0.421; with Palbociclib + Trametinib (first compound 0.3162 µM), 0.406; in the experiment with Palbociclib + Trametinib (first compound 1 µM) it was 0.258; with Palbociclib + Navitoclax (first compound 0.01 µM), 0.326. The relative viability with Palbociclib + Navitoclax (first compound 0.03162 µM) amounted to 0.326; with Palbociclib + Navitoclax (first compound 0.1 µM), 0.23; with Palbociclib + Navitoclax (first compound 0.3162 µM), 0.257; in the experiment with Palbociclib + Navitoclax (first compound 1 µM), 0.223; in the experiment with Palbociclib + Tozasertib (first compound 0.01 µM), 0.197; with Palbociclib + Tozasertib (first compound 0.03162 µM), 0.187. The relative viability with Palbociclib + Tozasertib (first compound 0.1 µM) was 0.202; in the experiment with Palbociclib + Tozasertib (first compound 0.3162 µM), 0.22; with Palbociclib + Tozasertib (first compound 1 µM), 0.208; in the experiment with Palbociclib + Decitabine (first compound 0.01 µM), 0.696; with Palbociclib + Decitabine (first compound 0.03162 µM), 0.624; with Palbociclib + Decitabine (first compound 0.1 µM) it was 0.363. In addition, the relative viability was found to be 0.48 with Palbociclib + Decitabine (first compound 0.3162 µM) and 0.336 with Palbociclib + Decitabine (first compound 1 µM).
